# Source: US20240199571A1, “THIOPHENE COMPOUND AND APPLICATION THEREOF” (MEDSHINE DISCOVERY INC., priority 2021, published 2024)
# Counter-ions that a name gives are not always drawn.
# Assays:
# [1] = Experiment 3: pharmacokinetic evaluation in CD-1 mice (IV and oral); format: in vivo; settings: mouse, plasma, male CD-1 mice; for clearance / half-life / Vd: IV 1 mg/kg; for clearance: read-out: Clearance rate CL; for half-life: read-out: Half life T1/2 (IV, h) (converted); for Vd: read-out: Volume of distribution at steady state Vdss; for bioavailability: PO 2 mg/kg vs IV 1 mg/kg, read-out: Bioavailability F (%); for AUC(0-t): PO 2 mg/kg, read-out: Area under drug-time curve AUC0-last PO; for Cmax: single dose, oral 2 mg/kg, read-out: Peak concentration Cmax
# Procedure, shortened: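 Male/female CD-1 mice aged 7-9 weeks, two per route, received single doses of 1 mg/kg IV or 2 mg/kg oral gavage in 10% DMSO/90% of 10% HP-β-cyclodextrin. Plasma was sampled from 0.083 (IV) or 0.25 (PO) to 24 h. Methanol-precipitated samples were measured by LC-MS/MS to derive Cmax, CL, T1/2, Vdss, AUC0-last and F.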
# human LSD1 = human LSD1 (Homo sapiens (Human), UniProt O60341); assay: Experiment 1B: in vitro LSD1 enzyme activity, enzyme-coupled fluorescence (HRP/Amplex Red), H3(1-21)K4me2 peptide 10 μM (Reaction Biology); format: biochemical; settings: histone H3(1-21)K4me2 peptide 10 μM
# Procedure, shortened: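 Human LSD1 with 10 μM histone H3(1-21)K4me2 peptide; enzyme and substrate incubated 30 min before compound addition started the reaction. H2O2 detected via HRP/Amplex Red fluorescence (Ex/Em 535/590). IC50 from 10-point 3-fold dilutions starting at 10 μM.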
# [2] = test system: human small cell lung cancer NCI-H1417 cell subcutaneous xenograft tumor; assay: Experiment 5: in vivo pharmacodynamic study, NCI-H1417 subcutaneous xenograft tumor in CB17-SCID mice; settings: p.o.; for Mean tumor volume ± SEM (mm^3) (Day 28): day 28 after administration; for TGI (%): tumor volume at day 28
# Description: Experiment 5: In Vivo Pharmacodynamic Study of Compounds on CB17-SCID Mouse Model of Human Small Cell Lung Cancer NCI-H1417 Cell Subcutaneous Xenograft Tumor
# The purpose of this experiment was to evaluate the in vivo efficacy of the compounds of the present disclosure on CB17-SCID mouse model of human small cell lung cancer NCI-H1417 cell subcutaneous xenograft tumor.
# 5.2 Experimental Animals: • Species: mice • Strain: CB17-SCID mice • Week age and weight: 6-8 weeks old, 18 to 22 grams • Gender: Female • Supplier: Beijing Vital River Laboratory Animal Technology Co., Ltd.
# Human lung cancer cells NCI-H1417 were cultured in vitro in suspension in RPMI 1640 medium with 10% fetal bovine serum, 100 U/mL penicillin, and 100 μg/mL streptomycin at 37° C. in a 5% CO2 cell culture incubator. Routine digestion and passage treatment were performed twice a week. When the number of cells reached the required number, the cells were counted and resuspended in PBS at a density of 10×10^6 cells/200 μL.
# 0.2 mL of NCI-H1417 tumor cells (containing 10×10^6 cells) suspension (PBS: matrix gel=1:1) was subcutaneously inoculated on the right back of mice, and in pharmacodynamic experiments, on the 16th day after cell inoculation, when the average tumor volume reached 86 mm^3, the subjects were randomly grouped and the administration started.
# The experimental vehicle was 5% dimethyl sulfoxide/95% (10% Solutol) solution. Preparation method: 3.8 mL of […] was taken and added to 34.2 mL of double-distilled water, 2 mL of dimethyl sulfoxide was added thereto, and the mixture was mixed well. The test substance was dissolved with the vehicle, prepared as a homogeneous solution of a certain concentration, and stored at 4° C.
# The experimental indicator was to examine whether tumor growth was inhibited, delayed, or cured. The tumor diameter was measured twice a week using vernier calipers. The calculation formula of tumor volume is V=0.5a×b^2, wherein a and b represent the long and short diameters of the tumor respectively.
# The tumor inhibitory efficacy of compounds was evaluated by TGI (%). TGI (%) reflects the tumor growth inhibition rate. Calculation of TGI (%): TGI (%)=[1−(Average tumor volume at the end of administration in a certain treatment group−Average tumor volume at the beginning of administration in this treatment group)/(Average tumor volume at the end of treatment in the vehicle control group−Average tumor volume at the beginning of treatment in the vehicle control group)]×100%.
clearance [1],half-life [1],Vd [1],bioavailability [1],AUC(0-t) [1],Cmax [1],IC50 (human LSD1),Structure (SMILES),"Mean tumor volume ± SEM (mm^3) (Day 28) ([2]; 5 mg/kg, BID)","TGI (%) ([2]; 5 mg/kg, BID)","Mean tumor volume ± SEM (mm^3) (Day 28) ([2]; 5 mg/kg, QD)","TGI (%) ([2]; 5 mg/kg, QD)","Mean tumor volume ± SEM (mm^3) (Day 28) ([2]; 10 mg/kg, QD)","TGI (%) ([2]; 10 mg/kg, QD)","Mean tumor volume ± SEM (mm^3) (Day 28) ([2]; 30 mg/kg, BID)","TGI (%) ([2]; 30 mg/kg, BID)"
45.3 mL/min/kg,2.28 h,6.94 L/kg,58.6%,0.708 µM·h,160 nM,12.6 nM,CN[C@@H]1CCCN(C(=O)c2cc(-c3ccc(C#N)c(F)c3)c(-c3cc4nnn(CC(C)(C)O)c4c(F)c3F)s2)C1 [Hydrochloride of compound 98],34 ± 1 mm^3,114.20%,44 ± 2 mm^3,111.58%,38 ± 3 mm^3,113.35%,,
25.7 mL/min/kg,1.54 h,3.13 L/kg,41.1%,1.01 µM·h,267 nM,24.8 nM,CC(C)(CO)n1cc2cc(-c3sc(C(=O)N4CCC[C@@H](N)C4)cc3-c3ccc(C#N)c(F)c3)ccc2n1 [Hydrochloride of compound 87],,,,,,,67 ± 5 mm^3,105.17%
